Assay results: patent US20050118715A1, “Modulation of stem and progenitor cell differentiation, assays, and uses thereof” (priority 2002, published 2005)

System: Sca+Lin- progenitors
Assay: Generation of murine dendritic cells from bone marrow Sca+ progenitors, cell surface phenotype (Example 13)
Type: cell-based, C57BL/6 mice
Conditions: 10 μM
Description: Mouse bone marrow from inbred C57BL/6 mice are obtained from Clonetics. Hematopoietic Sca+Lin− progenitors are enriched using SpinSep murine progenitor enrichment cocktail (StemCell Technologies) and cultured in Iscove's MDM with BUI 95000 (StemCell Technologies) in the presence of murine growth factors SCF, Flt3L, GM-CSF and M-CSF for 9 days, to promote expansion of Sca+ cells and a DC precursor phenotype and then in the presence of GM-CSF and TNF-α for 3 additional days to drive the cells to an immature DC phenotype. Enriched Sca+Lin− cells are cultured in the presence of DMSO (0.1%), SelCIDs™ at 10 μM or all-trans retinoic acid (ATRA) (ICN Biomedicals) at 10 μM from day 0. Compounds are added to cells at day 0 and day 9.
Analysis of Murine cell surface phenotype: murine cells are processed for double staining (14 min at RT) at day 9 and day 12; using FITC and PE conjugated mAbs. Antibodies used are from BD Pharmingen: Sca (PE), CD11b (FITC), Gr-1 ([…]), CD86 (PE), CD14 (PE), CD80 (PE), I-Ab (PE), CD40 (PE) and CD32.1/16.1 (FITC) from Miltenyi. Fluorescence analysis is performed on a FACScan flow cytometer ([…]) after acquisition of 10,000 events.

CC1=C(/C=C/C(C)=C/C=C/C(C)=C/C(=O)O)C(C)(C)CCC1 [ATRA, all-trans retinoic acid]
CD80, I-A^b and Sca+ expression (by day 9): marked downregulation | expression of CD40 and CD80 (by day 12): marked downregulation
